Patent US9656994B2, “Substituted benzimidazoles as nociceptin receptor modulators” (The Scripps Research Institute, priority 2013, dated 2017)
pEC50, pIC50: −log10 of the molar value. Where two headings read alike, the source gives them in different places.

How the values were obtained:
NOP [1] = molecular target: T1, NOP (Homo sapiens, UniProt P41146); assay: cAMP biosensor assay, NOP antagonist mode; format: cell-based
MOP [2] = molecular target: T2, MOP (Homo sapiens, UniProt P35372); assay: cAMP biosensor assay, MOP agonist mode; format: cell-based
NOP [3] = molecular target: T1, NOP; assay: cAMP biosensor assay, NOP agonist mode; format: cell-based
MOP [4] = molecular target: T2, MOP; assay: cAMP biosensor assay, MOP antagonist mode; format: cell-based
[5] = blood-brain barrier penetration; settings: in vivo
[6] = system: selected cytochrome P450 enzymes; assay: affinity for selected cytochrome P450 enzymes
[7] = HEK293-CNG cells expressing NOP, antagonist mode with 5 nM nociceptin, read-out: NOP Antagonist IC50
[8] = HEK293-CNG cells expressing NOP, agonist mode, 11 point concentration-response, read-out: NOP Agonist EC50

T2 sequence (P35372 whole entry): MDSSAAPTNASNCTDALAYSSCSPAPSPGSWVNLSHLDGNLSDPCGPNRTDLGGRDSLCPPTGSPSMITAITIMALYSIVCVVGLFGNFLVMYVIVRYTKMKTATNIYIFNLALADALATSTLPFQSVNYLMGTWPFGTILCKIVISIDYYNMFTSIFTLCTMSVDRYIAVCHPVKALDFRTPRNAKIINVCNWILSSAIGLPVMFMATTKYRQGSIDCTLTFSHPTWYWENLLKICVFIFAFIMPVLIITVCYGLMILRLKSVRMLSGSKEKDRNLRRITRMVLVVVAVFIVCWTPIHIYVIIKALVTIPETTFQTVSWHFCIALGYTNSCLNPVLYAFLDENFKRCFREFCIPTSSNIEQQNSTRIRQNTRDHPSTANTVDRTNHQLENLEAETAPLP
T1 sequence (P41146 whole entry): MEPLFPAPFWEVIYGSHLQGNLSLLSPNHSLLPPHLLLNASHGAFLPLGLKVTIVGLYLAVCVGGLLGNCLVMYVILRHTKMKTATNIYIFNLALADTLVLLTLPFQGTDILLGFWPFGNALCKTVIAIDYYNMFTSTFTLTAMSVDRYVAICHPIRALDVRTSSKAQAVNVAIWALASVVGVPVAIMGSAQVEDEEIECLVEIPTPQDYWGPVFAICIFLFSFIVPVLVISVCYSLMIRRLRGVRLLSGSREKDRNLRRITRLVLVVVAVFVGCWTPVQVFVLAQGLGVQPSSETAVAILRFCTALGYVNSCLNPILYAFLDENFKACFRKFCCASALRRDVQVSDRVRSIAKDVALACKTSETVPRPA

Structure (SMILES)	pIC50 (NOP [1]; [7])	pEC50 (MOP [2])	pEC50 (NOP [3]; [8])	pIC50 (MOP [4])	pIC50 (NOP [1])	pEC50 (NOP [3])	blood-brain barrier penetration [5]	affinity for selected cytochrome P450 enzymes [6]
c1ccc2c(c1)nc(C1CCNCC1)n2C1CCN(CC2CCCCCCC2)CC1 [Cpd 10]	< 5.00	6.40	5.46	< 5.00	–	–	–	–
O[C@H]1CN[C@H](c2nc3ccccc3n2C2CCN(CC3CCCCCCC3)CC2)C1 [Cpd 18]	–	6.24	–	–	5.11	5.85	–	–
CC1=C(CN2CCC(n3c(C4CNC4)nc4cc(F)ccc43)CC2)C(C)(C)CCC1 [Cpd 53]	< 5.00	–	6.68	< 5.00	–	–	–	–
c1ccc2c(c1)nc([C@@H]1CCNC1)n2C1CCN(CC2CCCCCCC2)CC1 [Cpd 11]	–	–	–	–	–	–	44%	low affinity
C1=CC2CC1CC2CN1CCC(n2c(C3CNC3)nc3ccccc32)CC1 (stereo not shown) [Cpd 47]	< 5.00	6.52	6.51	< 5.00	–	–	–	–
CC1(C)[C@H]2CC=C(CN3CCC(n4c([C@@H]5CCCNC5)nc5ccccc54)CC3)[C@@H]1C2 [Cpd 58]	< 5.00	–	5.80	< 5.00	–	–	–	–
c1ccc2c(c1)nc(C1CNC1)n2C1CCN(CC2CCCCC2)CC1 [Cpd 55]	< 5.00	–	6.85	< 5.00	–	–	–	–
Fc1ccc2c(c1)nc([C@@H]1CCCNC1)n2C1CCN(CC2CCCCCCC2)CC1 [Cpd 30]	5.41	6.64	6.82	5.52	–	–	–	–
CS(=O)(=O)c1ccc2c(c1)nc([C@@H]1CCNC1)n2C1CCN(CC2CCCCCCC2)CC1 [Cpd 44]	< 5.00	–	5.48	< 5.00	–	–	–	–
c1ccc(CN2CCC(n3c([C@@H]4CCNC4)nc4ccccc43)CC2)cc1 [Cpd 59]	< 5.00	6.57	6.43	< 5.00	–	–	–	–
Cc1ccc2c(c1)nc([C@@H]1CCNC1)n2C1CCN(CC2CCCCCCC2)CC1 [Cpd 41]	< 5.00	5.23	5.20	< 4.00	–	–	–	–
